From publication PMC10102067, “Synthesis of vancomycin fluorescent probes that retain antimicrobial activity, identify Gram-positive bacteria, and detect Gram-negative outer membrane damage” (Communications Biology, 2023) come the findings set out here.

For one assay, the system named is E. coli. Nature of the assay: microbe, parasite or virus in culture. The note with it: 3 h. Here is the method:
Bacteria were obtained from the American Type Culture Collection (ATCC; Manassas, VA, USA), Merck Sharp & Dohme (Kenilworth, NJ), the Coli Genetic Stock Center (CGSC, Yale University), Network on Antimicrobial Resistance in Staphylococcus aureus (NARSA) via BEI Resources (www.beiresources.org) and independent academic clinical isolate and mutant collections. All species used in this study were described fully in Table S4. Bacteria were cultured in Cation-Adjusted Mueller-Hinton Broth (CAMHB, Bacto Laboratories, Cat No. 212322) or Muller Hinton Broth (MHB, Bacto Laboratories, Cat No. 211443) at 37 °C overnight. A sample of each culture was then diluted 50-fold in MHB and incubated at 37 °C for 1.5–3 h. The stock solutions of vancomycin probes 7, 8 and 9 were prepared at 1.28 mg/mL in sterile water. The compounds were serially diluted two-fold across the wells, with concentrations ranging from 0.06 µg/mL to 128 µg/mL, plated in duplicate. […]

For assay [1], the system named is S. aureus ATCC 25923. Briefly: Flow cytometry comparison with commercial fluorescent probes (Fig. S2A). The format is cell-based. The note with it: 2 and 16 µg/mL, 30 min 37 °C. The text has this:
(§1) Figure S2. Comparison of probe 7 and probe 9 to commercial fluorescent probes using flow cytometry and microscopy. Labelling of S. aureus ATCC 25923 (A) and E. coli ATCC25922 (B) with vancomycin probe 7, probe 9, Van-FITC (SBR00028, Sigma-Aldrich), and Van-BODIPY (V34850, Invitrogen™) measured using flow […]
(§2) flow cytometer. The data are presented as the mean ± SEM (n = 3). GeoMean: Geometric Mean. (C) Airyscan confocal super-resolution imaging of vancomycin probe 7, probe 9, Van-FITC (SBR00028, Sigma-Aldrich), and Van-BODIPY (V34850, Invitrogen™) in S. aureus ATCC 25923. Bacteria were stained with probes (2 and 16 µg/mL, Green) for 30 min at 37 °C. Arrows indicate cells with Van-BODIPY entering cytoplasm. Scale bar = 1 µm.
(§3) (1 picture or pasted object on this page, not shown here)
A general note: Flow cytometry measures light scatter and fluorescence of single cells or particles in a stream.

For a further assay, the system named is E. coli ATCC25922. Nature of the assay: Flow cytometry comparison with commercial fluorescent probes (Fig. S2B). The format is cell-based. The note with it: 2 and 16 µg/mL, 30 min 37 °C.
Source text: as §1, §2, §3

The subject of assay [2] is S. aureus ATCC 25923. Nature of the assay: Airyscan confocal super-resolution imaging, comparison of probes (Fig. S2C). The format is cell-based. The note with it: 2 and 16 µg/mL, 30 min 37 °C. The method, then: Figure S2. Comparison of probe 7 and probe 9 to commercial fluorescent probes using flow cytometry
and microscopy. […]
Van-BODIPY (V34850, Invitrogen™) in S. aureus ATCC 25923. Bacteria were stained with probes (2 and 16
µg/mL, Green) for 30 min at 37 °C. Arrows indicate cells with Van-BODIPY entering cytoplasm. Scale bar = 1 µm.

The test system of another assay is S. aureus. The note with it: tested S. aureus strains (Table S3); dissolved in DMSO. The method, then:
Bacteria were obtained from the American Type Culture Collection (ATCC; Manassas, VA, USA), Merck Sharp & Dohme (Kenilworth, NJ), the Coli Genetic Stock Center (CGSC, Yale University), Network on Antimicrobial Resistance in Staphylococcus aureus (NARSA) via BEI Resources (www.beiresources.org) and independent academic clinical isolate and mutant collections. All species used in this study were described fully in Table S4. Bacteria were cultured in Cation-Adjusted Mueller-Hinton Broth (CAMHB, Bacto Laboratories, Cat No. 212322) or Muller Hinton Broth (MHB, Bacto Laboratories, Cat No. 211443) at 37 °C overnight. A sample of each culture was then diluted 50-fold in MHB and incubated at 37 °C for 1.5–3 h. […] The compounds were serially diluted two-fold across the wells, with concentrations ranging from 0.06 µg/mL to 128 µg/mL, plated in duplicate. The resultant mid-log phase culture was diluted to 1 × 10^6 CFU/mL, then 50 µL was added to each well of the compound-containing 96-well plates (Corning, Cat. No 3641, non-binding surface (NBS) plates), giving a cell density of 5 × 10^5 CFU/mL, and a final compound concentration range of 0.03 µg/mL to 64 µg/mL.

`CN[C@H](CC(C)C)C(=O)N[C@H]1C(=O)N[C@@H](CC(N)=O)C(=O)N[C@H]2C(=O)N[C@H]3C(=O)N[C@H](C(=O)N[C@H](C(=O)O)c4cc(O)cc(O)c4-c4cc3ccc4O)[C@H](O)c3ccc(c(Cl)c3)Oc3cc2cc(c3O[C@@H]2O[C@H](CO)[C@@H](O)[C@H](O)[C@H]2O[C@H]2C[C@](C)(NC(=O)CCc3ccc4n3[B-](F)(F)[N+]3=C(C)C=C(C)C3=C4)[C@H](O)[C@H](C)O2)Oc2ccc(cc2Cl)[C@H]1O` [Van-BODIPY]: in the assay on E. coli, the MIC is reported as > 64 µg/mL. For the same compound, the “staining of S. aureus (flow cytometry, in words)” value in the assay with S. aureus ATCC 25923 [1] is given as “greatest intensity”. Besides, in the assay on E. coli ATCC25922, the “staining of E. coli (flow cytometry, in words)” value was “stained a larger population of cells than the other probes”. Besides, in the assay on S. aureus ATCC 25923 [2], the “peptidoglycan labelling pattern (Airyscan imaging, in words)” value is reported as “label the cells more uniformly”.

In the case of `CC(C)C[C@H](C(=O)N[C@H]1C(=O)N[C@@H](CC(N)=O)C(=O)N[C@H]2C(=O)N[C@H]3C(=O)N[C@H](C(=O)N[C@H](C(=O)O)c4cc(O)cc(O)c4-c4cc3ccc4O)[C@H](O)c3ccc(c(Cl)c3)Oc3cc2cc(c3O[C@@H]2O[C@H](CO)[C@@H](O)[C@H](O)[C@H]2O[C@H]2C[C@](C)(N)[C@H](O)[C@H](C)O2)Oc2ccc(cc2Cl)[C@H]1O)N(C)C(=S)Nc1ccc2c(c1)C(=O)OC21c2ccc(O)cc2Oc2cc(O)ccc21` [Van-FITC], the “antimicrobial activity at the highest concentration tested” value in the assay with S. aureus is listed as > 32 µg/mL. Further, the MIC against E. coli is reported as > 64 µg/mL. Also, the “staining of S. aureus (flow cytometry, in words)” value with S. aureus ATCC 25923 [1] is reported as “the worst”. Also, the “staining of E. coli (flow cytometry, in words)” value in the assay with E. coli ATCC25922 is recorded as “did not show much staining”. The “peptidoglycan labelling pattern (Airyscan imaging, in words)” value in the assay with S. aureus ATCC 25923 [2] is “no fluorescence signal observed at 2 µg/mL”.
